Non-standard residues stand in square brackets, D forms with d. Residues, ends and D or L forms follow the SMILES beside them. Oic = O=C(O)[C@@H]1C[C@@H]2CCCC[C@@H]2N1; 2Nal = N[C@@H](Cc1ccc2ccccc2c1)C(=O)O; β3hY = N[C@H](CC(=O)O)Cc1ccc(O)cc1; Hyp = O=C(O)[C@@H]1C[C@@H](O)CN1; β3hF = N[C@H](CC(=O)O)Cc1ccccc1; ΔPro = O=C(O)[C@@H]1C=CCN1
What was measured:
[1] = tested on: PHA-induced proliferation of human peripheral blood mononuclear cells (PBMC); assay: Proliferative response of PBMC to PHA (MTT); type: cell-based; settings: four-day incubation, FIGS. 9A-9F
[2] = tested on: mice, carrageenan-induced foot pad edema; assay: Carrageenan-induced foot-pad edema test; type: in vivo, mouse; settings: 4 h after carrageenan; peptides 250 μg i.p., DEX 25 μg i.p., 30 min before; FIGS. 17A-17C
Experimental: (§1) In this and the air-pouch test, 1.5 mg peptide was dissolved in 300 μl of DMSO, then in 0.9% NaCl to achieve the desired dose (250 μg/0.2 ml or 100 μg/0.2 ml). Carrageenan (Sigma) was dissolved in 0.9% aqueous NaCl (overnight). 50 μl of 2% carrageenan solution was injected intradermally into hind foot pads. The peptides were given in a single 250 μg dose (0.2 ml) per mouse intraperitoneally (i.p.), 30 min before carrageenan administration. Dexamethasone (DEX) (Dexaven, Polfa, Poland), a reference drug, was given i.p. in dose 25 μg per mouse. Control mice were administered i.p. appropriately diluted solvent (DMSO in aqueous NaCl) instead of peptides. The foot pads of “background” (BG) mice were injected with 50 μl of 0.9% aqueous NaCl. Foot pad edema was measured with a spring caliper, 2 h, 3 h and 4 h after administration of carrageenan. The results are presented in FIGS. 17A, 17B and 17C as mean values of the antigen-specific increase of the foot pad thickness measured in 5 mice in each experimental group and expressed in mm ±SE (only results from measurements 4 h following administration of carrageenan are presented in figures). Statistics: FIG. 17A: Control vs: DEX P=0.0001; 4B8M P=0.0001; P25 NS (P=1.0000); P28 NS (P=1.0000); P31 NS (P=0.0528); P35 P=0.0008 (ANOVA of Kruskal-Wallis); FIG. 17B: Statistics: Control vs: P22 NS (P=1.0000); P26 NS (P=1.0000); P27 P=0.0050; P30 P=0.0004; P33-b NS (P=1.0000); SP00-b P=0.0001; P00S-b NS (P=1.0000) (ANOVA of Kruskal-Wallis); FIG. 17C: Statistics: Control vs: P21 P=0.0147; P23-2 P=0.0083; P24 P=0.0001; P29 NS (P=0.9999); P32 P=0.0001; P33 NS (P=0.6806); P34 NS (P=0.1920) (ANOVA).

[3] = tested on: mice, carrageenan air pouch; assay: Carrageenan air-pouch test (exudate cell number); type: in vivo, mouse; settings: peptides 100 μg i.p. one hour before carrageenan, 24 h; FIGS. 18A-18B
Experimental: as §1
Air pouches were formed by subdermal injection into the dorsal region (in a halothane anesthesia) of 5 cm^3 of air (needle 23G x 11/4, 5 ml syringe). On day 3 the air pouches were given an additional 2 ml of air and an inflammatory process was elicited by an intra-pouch injection of 1% of carrageenan in 0.5 ml of 0.9% aqueous NaCl. The peptides were given i.p. at a dose of 100 μg one hour before carrageenan injection into the air pouch. The mice from the “background” (BG) group were given 0.9% aqueous NaCl i.p. and 0.9% aqueous NaCl into the air pouches. Control mice were given appropriately diluted DMSO i.p. and carrageenan into the air pouches. 24 h after carrageenan injection, the mice were sacrificed by cervical dislocation, the air pouches were supplemented with 1 ml of 0.9% aqueous NaCl and the exudates from the air pouches were aspirated using a syringe. The exudates were diluted with 0.9% aqueous NaCl and the cells were counted in a Bürker hemocytometer. Data are presented in FIGS. 18A and 18B as the mean values from 10 mice/group (cell number×10^6 per mouse) ±SE. Then the cells were centrifuged and 0.1 ml of the supernatant was saved for TNF-α determination (see Determination of TNF-α activity, above). The cell pellets were used to perform smears on microscopic glasses, which were stained with Giemsa and May-Grünwald reagents for evaluation of mast cell degranulation. Cell analysis was performed by a histologist using a light microscope and 1000× magnification. The content of intact and degranulated mast cells is given in percentage (mean values from 10 mice/group) ±SE. Statistics: FIG. 18A: BG vs Control P=0.0000; Control vs: DEX P=0.0034; 4B8M P=0.0005; P22 NS (P=0.7275); P26 P=0.0032; P27 NS (P=0.0659); P35 NS (P=1.0000) (ANOVA of Kruskal-Wallis); FIG. 18B: Control vs: P21 NS (P=0.322); P23-2 P=0.0020; P24 P=0.0001; P25 P=0.0418; P28 NS (P=0.3502); P29 NS (P=0.0582); P30 P=0.0006; P31 P=0.0078; P32 P=0.0340; P33 NS (P=0.9993); P34 NS (p=0.0566) (ANOVA).

human PBMC = assay: Toxicity test: PBMC survival in 24 h culture (MTT); settings: ANOVA, FIGS. 8A-8F (4B8M repeated per figure)
Experimental: PBMC were isolated by centrifugation on Ficoll-uropoline gradient (density 1.077 g/ml) (Lymphoprep; PAA Laboratories), at 800×g for 20 min at 4° C. The interphase cells, consisting of lymphocytes (20%) and monocytes (80%) were then washed three times with Hanks' medium and re-suspended in the culture medium at density of 2×10^6 cells/ml.
Appropriate dilutions of DMSO in RPMI 1640 medium were used as controls. Cell survival was determined by the MTT colorimetric method (Hansen et al., J. Immunol. Methods, 1989, pp. 203-210). The data are presented as a mean OD value from quadriplicate wells ±standard error (SE). The cultures “Control (−)” contained only cells in the culture medium.
The assay was performed per Hansen et al., J. Immunol. […] Briefly, 25 μl of MTT (5 mg/ml) stock solution was added per well at the end of cell incubation and the plates were incubated for 3 h in a cell culture incubator. Then, 100 μl of the extraction buffer (20% SDS with 50% DMF, pH 4.7) was added. After additional overnight incubation, the optical density was measured at 550 nm (Dynatech 5000).

Structure (SMILES) | PHA-induced PBMC proliferation, P vs DMSO at appropriate dilution ([1]; 10 μg/ml) | PHA-induced PBMC proliferation, P vs DMSO at appropriate dilution ([1]; 100 μg/ml) | foot pad edema (increase of foot pad thickness), P vs Control [2] | air pouch exudate cell number, P vs Control [3] | PBMC survival, P vs DMSO at appropriate dilution (human PBMC; 10 μg/ml) | PBMC survival, P vs DMSO at appropriate dilution (human PBMC; 100 μg/ml)
O=C1C[C@H](Cc2ccc(O)cc2)NC(=O)[C@@H]2CCCN2C(=O)[C@@H]2CCCN2C(=O)[C@H](Cc2ccccc2)N1 [I-AG] (cyclo(FPP[β3hY])) | 1.0000 | 1.0000 | 0.6806 | 0.9993 | 0.0001 | 0.0001
O=C1C[C@H](Cc2ccccc2)NC(=O)[C@@H]2CCCN2C(=O)[C@@H]2C[C@@H]3CCCC[C@@H]3N2C(=O)[C@H](Cc2ccccc2)N1 [I-AD] (cyclo(F[Oic]P[β3hF])) |  | 1.0000 | 0.0528 | 0.0078 | 1.0000 | 0.9531
O=C1C[C@H](Cc2ccccc2)NC(=O)[C@@H]2CCCN2C(=O)[C@@H]2C[C@@H](O)CN2C(=O)[C@H](Cc2ccccc2)N1 [I-R] (cyclo(F[Hyp]P[β3hF])) | 0.7122 | 0.0436 | 0.0147 | 0.322 | 0.6250 | 0.0019
C[C@@H]1C[C@H]2[C@@H]3CCC4=CC(=O)C=C[C@]4(C)[C@@]3(F)[C@@H](O)C[C@]2(C)[C@@]1(O)C(=O)CO [DEX, dexamethasone, reference compound] |  |  | 0.0001 | 0.0034 |  | 
O=C1C[C@H](Cc2ccccc2)NC(=O)[C@@H]2CCCN2C(=O)[C@@H]2C=CCN2C(=O)[C@H](Cc2ccccc2)N1 [I-S] (cyclo(F[ΔPro]P[β3hF])) | 0.0275 | 0.0001 | 1.0000 | 0.7275 | 0.9753 | 1.0000
O=C1C[C@H](Cc2ccccc2)NC(=O)[C@@H]2CCCN2C(=O)[C@@H]2CCCN2C(=O)[C@H](Cc2ccc3ccccc3c2)N1 [I-U] (cyclo([2Nal]PP[β3hF])) | 1.0000 | 0.0002 | 0.0083 | 0.0020 | 0.9972 | 0.4949

Reference: patent publication US10238713B2, “Cyclic tetrapeptides and therapeutic applications thereof” (LODZ UNIVERSITY OF TECHNOLOGY, priority 2010, dated 2019)
